# Source: the NIST ThermoML archive (doi:10.1016/j.fluid.2006.05.032)
# Numbers after ± are expanded uncertainties.
# Test: xn = mol fraction of the nth substance listed
# Details: Liquid, Vibrating tube method, x1 = 1
compound,measurement,setting,value
CCCO [propan-1-ol] + Cc1ccccc1,mass density,"293.15 K, 100 kPa",803.5 ± 1 kg/m3
same,mass density,"293.15 K, 5000 kPa",807.3 ± 1 kg/m3
same,mass density,"293.15 K, 10000 kPa",810.9 ± 1 kg/m3
same,mass density,"293.15 K, 15000 kPa",814.3 ± 1 kg/m3
same,mass density,"293.15 K, 20000 kPa",817.7 ± 1 kg/m3
same,mass density,"293.15 K, 25000 kPa",821 ± 1 kg/m3
same,mass density,"293.15 K, 30000 kPa",824 ± 1 kg/m3
same,mass density,"293.15 K, 35000 kPa",827 ± 1.1 kg/m3
same,mass density,"293.15 K, 40000 kPa",829.9 ± 1.1 kg/m3
same,mass density,"293.15 K, 45000 kPa",832.7 ± 1.1 kg/m3
same,mass density,"293.15 K, 50000 kPa",835.4 ± 1.1 kg/m3
same,mass density,"293.15 K, 55000 kPa",838.1 ± 1.1 kg/m3
same,mass density,"293.15 K, 60000 kPa",840.7 ± 1.1 kg/m3
same,mass density,"293.15 K, 65000 kPa",843.2 ± 1.1 kg/m3
same,mass density,"303.15 K, 100 kPa",795.2 ± 1 kg/m3
same,mass density,"303.15 K, 5000 kPa",799.2 ± 1 kg/m3
same,mass density,"303.15 K, 10000 kPa",802.9 ± 1 kg/m3
same,mass density,"303.15 K, 15000 kPa",806.7 ± 1 kg/m3
same,mass density,"303.15 K, 20000 kPa",810.1 ± 1 kg/m3
same,mass density,"303.15 K, 25000 kPa",813.6 ± 1 kg/m3
same,mass density,"303.15 K, 30000 kPa",816.7 ± 1 kg/m3
same,mass density,"303.15 K, 35000 kPa",819.8 ± 1.1 kg/m3
same,mass density,"303.15 K, 40000 kPa",822.9 ± 1.1 kg/m3
same,mass density,"303.15 K, 45000 kPa",825.8 ± 1.1 kg/m3
same,mass density,"303.15 K, 50000 kPa",828.8 ± 1.1 kg/m3
same,mass density,"303.15 K, 55000 kPa",831.6 ± 1.1 kg/m3
same,mass density,"303.15 K, 60000 kPa",834.2 ± 1.1 kg/m3
same,mass density,"303.15 K, 65000 kPa",837 ± 1.1 kg/m3
same,mass density,"313.15 K, 100 kPa",787.6 ± 1 kg/m3
same,mass density,"313.15 K, 5000 kPa",791.9 ± 1 kg/m3
same,mass density,"313.15 K, 10000 kPa",795.9 ± 1 kg/m3
same,mass density,"313.15 K, 15000 kPa",799.7 ± 1 kg/m3
same,mass density,"313.15 K, 20000 kPa",803.3 ± 1 kg/m3
same,mass density,"313.15 K, 25000 kPa",806.8 ± 1 kg/m3
same,mass density,"313.15 K, 30000 kPa",810.2 ± 1 kg/m3
same,mass density,"313.15 K, 35000 kPa",813.5 ± 1.1 kg/m3
same,mass density,"313.15 K, 40000 kPa",816.6 ± 1.1 kg/m3
same,mass density,"313.15 K, 45000 kPa",819.7 ± 1.1 kg/m3
same,mass density,"313.15 K, 50000 kPa",822.7 ± 1.1 kg/m3
same,mass density,"313.15 K, 55000 kPa",825.5 ± 1.1 kg/m3
same,mass density,"313.15 K, 60000 kPa",828.3 ± 1.1 kg/m3
same,mass density,"313.15 K, 65000 kPa",831 ± 1.1 kg/m3
same,mass density,"323.15 K, 100 kPa",779.3 ± 1 kg/m3
same,mass density,"323.15 K, 5000 kPa",783.7 ± 1 kg/m3
same,mass density,"323.15 K, 10000 kPa",788 ± 1 kg/m3
same,mass density,"323.15 K, 15000 kPa",792 ± 1 kg/m3
same,mass density,"323.15 K, 20000 kPa",795.8 ± 1 kg/m3
same,mass density,"323.15 K, 25000 kPa",799.7 ± 1 kg/m3
same,mass density,"323.15 K, 30000 kPa",803.2 ± 1.1 kg/m3
same,mass density,"323.15 K, 35000 kPa",806.6 ± 1.1 kg/m3
same,mass density,"323.15 K, 40000 kPa",809.9 ± 1.1 kg/m3
same,mass density,"323.15 K, 45000 kPa",813 ± 1.1 kg/m3
same,mass density,"323.15 K, 50000 kPa",816.1 ± 1.1 kg/m3
same,mass density,"323.15 K, 55000 kPa",819 ± 1.1 kg/m3
same,mass density,"323.15 K, 60000 kPa",821.8 ± 1.1 kg/m3
same,mass density,"323.15 K, 65000 kPa",824.6 ± 1.1 kg/m3
same,mass density,"333.15 K, 100 kPa",770.5 ± 1 kg/m3
same,mass density,"333.15 K, 5000 kPa",775.4 ± 1 kg/m3
same,mass density,"333.15 K, 10000 kPa",780 ± 1 kg/m3
same,mass density,"333.15 K, 15000 kPa",784.3 ± 1 kg/m3
same,mass density,"333.15 K, 20000 kPa",788.4 ± 1 kg/m3
same,mass density,"333.15 K, 25000 kPa",792 ± 1 kg/m3
same,mass density,"333.15 K, 30000 kPa",795.7 ± 1.1 kg/m3
same,mass density,"333.15 K, 35000 kPa",799.2 ± 1.1 kg/m3
same,mass density,"333.15 K, 40000 kPa",802.6 ± 1.1 kg/m3
same,mass density,"333.15 K, 45000 kPa",805.9 ± 1.1 kg/m3
same,mass density,"333.15 K, 50000 kPa",809.1 ± 1.1 kg/m3
same,mass density,"333.15 K, 55000 kPa",812.3 ± 1.1 kg/m3
same,mass density,"333.15 K, 60000 kPa",815.2 ± 1.1 kg/m3
same,mass density,"333.15 K, 65000 kPa",818.1 ± 1.1 kg/m3
same,mass density,"343.15 K, 100 kPa",761 ± 1 kg/m3
same,mass density,"343.15 K, 5000 kPa",766 ± 1 kg/m3
same,mass density,"343.15 K, 10000 kPa",770.7 ± 1 kg/m3
same,mass density,"343.15 K, 15000 kPa",775.3 ± 1 kg/m3
same,mass density,"343.15 K, 20000 kPa",779.6 ± 1 kg/m3
same,mass density,"343.15 K, 25000 kPa",783.7 ± 1.1 kg/m3
same,mass density,"343.15 K, 30000 kPa",787.6 ± 1.1 kg/m3
same,mass density,"343.15 K, 35000 kPa",791.2 ± 1.1 kg/m3
same,mass density,"343.15 K, 40000 kPa",794.7 ± 1.1 kg/m3
same,mass density,"343.15 K, 45000 kPa",798.3 ± 1.1 kg/m3
same,mass density,"343.15 K, 50000 kPa",801.6 ± 1.1 kg/m3
same,mass density,"343.15 K, 55000 kPa",804.6 ± 1.1 kg/m3
same,mass density,"343.15 K, 60000 kPa",807.7 ± 1.1 kg/m3
same,mass density,"343.15 K, 65000 kPa",810.6 ± 1.1 kg/m3
same,mass density,"353.15 K, 100 kPa",752.2 ± 1 kg/m3
same,mass density,"353.15 K, 5000 kPa",757.6 ± 1 kg/m3
same,mass density,"353.15 K, 10000 kPa",762.7 ± 1 kg/m3
same,mass density,"353.15 K, 15000 kPa",767.6 ± 1 kg/m3
same,mass density,"353.15 K, 20000 kPa",772.1 ± 1 kg/m3
same,mass density,"353.15 K, 25000 kPa",776.3 ± 1.1 kg/m3
same,mass density,"353.15 K, 30000 kPa",780.4 ± 1.1 kg/m3
same,mass density,"353.15 K, 35000 kPa",784.1 ± 1.1 kg/m3
same,mass density,"353.15 K, 40000 kPa",787.7 ± 1.1 kg/m3
same,mass density,"353.15 K, 45000 kPa",791.8 ± 1.1 kg/m3
same,mass density,"353.15 K, 50000 kPa",795.1 ± 1.1 kg/m3
same,mass density,"353.15 K, 55000 kPa",798.5 ± 1.1 kg/m3
same,mass density,"353.15 K, 60000 kPa",801.7 ± 1.1 kg/m3
same,mass density,"353.15 K, 65000 kPa",805 ± 1.1 kg/m3
